Assay results taken from patent US20100298141A1, “SUBSTITUTED PYRIDINE N-OXIDE HERBICIDES” (E. I. DU PONT DE NEMOURS AND COMPANY, priority 2007, published 2010).

Assays:
Test in all cases: Test F preemergence test
[1] = tested on: Italian ryegrass; type: in vivo, Lolium multiflorum; details: scale 0 to 100; for Ryegrass, Italian plant response rating: 125 g ai/ha
Description: (§1) Seeds of plant species selected from bermudagrass (Cynodon dactylon), Surinam grass (Brachiaria decumbens), large crabgrass (Digitaria sanguinalis), green foxtail (Setaria viridis), goosegrass (Eleusine indica), johnsongrass (Sorghum halepense), kochia (Kochia scoparia), pitted morningglory (Ipomoea lacunosa), purple nutsedge (Cyperus rotundus), common ragweed (Ambrosia elation), mustard (Brassica nigra), guineagrass (Panicum maximum), […] (Paspalum dilatatum), barnyardgrass (Echinochloa crus-galli), southern sandbur (Cenchrus echinatus), common sowthistle (Sonchus oleraceous), prickly […] spinosa), Italian ryegrass (Lolium multiflorum), common purslane (Portulaca oleracea), broadleaf signalgrass (Brachiaria platyphylla), common groundsel (Senecio vulgaris), common chickweed (Stellaria media), Virginia dayflower (Commelina virginica), annual bluegrass (Poa annua), naked crabgrass (Digitaria nuda), […] cochinchinensis), quackgrass (Elytrigia repens), Canada horseweed (Conyza canadensis), field bindweed (Convolvulus arvensis), […] (Bidens bipinnata), common mallow (Malva sylvestris), Russian thistle (Salsola kali), and sugarcane (Saccharum officinarum) were planted and treated preemergence with test chemicals formulated in a non-phytotoxic solvent mixture which included a surfactant. At a different time, sugarcane was treated with postemergence applications of some of the test chemicals formulated in the same manner. Plants were approximately 3- to 4-leaf stage for the postemergence treatments. Treated plants and controls were maintained in a greenhouse for 14 to 21 days, after which time all species were compared to controls and visually evaluated. […] A dash (-) response means no test result.

[2] = tested on: mustard; type: in vivo, Brassica nigra; details: scale 0 to 100
Description: as §1

[3] = tested on: field bindweed; type: in vivo, Convolvulus arvensis; details: scale 0 to 100
Description: as §1

[4] = tested on: southern sandbur; type: in vivo, Cenchrus echinatus; details: scale 0 to 100; for Sandbur plant response rating: 125 g ai/ha
Description: as §1

[5] = tested on: large crabgrass; type: in vivo, Digitaria sanguinalis; details: scale 0 to 100
Description: as §1

[6] = tested on: common groundsel; type: in vivo, Senecio vulgaris; details: scale 0 to 100
Description: as §1

[7] = tested on: Surinam grass; type: in vivo, Brachiaria decumbens; details: scale 0 to 100; for Surinam Grass plant response rating: 125 g ai/ha, preemergence; for Plant response rating, Surinam Grass: Preemergence
Description: as §1

[8] = tested on: common purslane; type: in vivo, Portulaca oleracea; details: scale 0 to 100
Description: as §1

[9] = tested on: barnyardgrass; type: in vivo, Echinochloa crus-galli
Description: as §1

[10] = tested on: quackgrass; type: in vivo, Elytrigia repens; details: scale 0 to 100
Description: as §1

[11] = tested on: Virginia dayflower; type: in vivo, Commelina virginica; details: scale 0 to 100
Description: as §1

[12] = tested on: annual bluegrass; type: in vivo, Poa annua; details: scale 0 to 100
Description: as §1

[13] = tested on: guineagrass; type: in vivo, Panicum maximum; details: scale 0 to 100
Description: as §1

[14] = tested on: kochia; type: in vivo, Kochia scoparia; details: scale 0 to 100
Description: as §1

[15] = tested on: dallisgrass; type: in vivo, Paspalum dilatatum; details: scale 0 to 100
Description: as §1

[16] = 16 g ai/ha, preemergence, scale 0 to 100 (0 no effect, 100 complete control)
[17] = 62 g ai/ha, Preemergence, scale 0 to 100
[18] = 125 g ai/ha, preemergence, scale 0 to 100
[19] = Preemergence, 31 g ai/ha, scale 0 to 100

Cn1nc(C(F)(F)C(F)(F)F)c(C[S+]([O-])c2cccc[n+]2[O-])c1OCC(F)(F)F (stereo not drawn) [Compound 79]
Plant response rating, Ryegrass, Italian ([1]; 16 g ai/ha, preemergence): 0
Ryegrass, Italian plant response rating ([1]; preemergence): 100
Plant response rating, Ryegrass, Italian ([1]; Preemergence, 62 g ai/ha): 100
Plant response rating, Ryegrass, Italian ([1]; Preemergence, 31 g ai/ha): 65
Plant response rating, Black Mustard ([2]; 16 g ai/ha, preemergence): 100
Black Mustard plant response rating ([2]; 62 g ai/ha, Preemergence): 100
Black Mustard plant response rating ([2]; 125 g ai/ha, preemergence): 100
Plant response rating, Black Mustard ([2]; Preemergence, 31 g ai/ha): 100
Plant response rating, Field Bindweed ([3]; 16 g ai/ha, preemergence): 60
Field Bindweed plant response rating ([3]; 62 g ai/ha, Preemergence): 80
Field Bindweed plant response rating ([3]; 125 g ai/ha, preemergence): 95
Plant response rating, Field Bindweed ([3]; Preemergence, 31 g ai/ha): 70
Sandbur plant response rating ([4]; preemergence): 95
Plant response rating, Sandbur ([4]; Preemergence, 62 g ai/ha): 95
Plant response rating, Sandbur ([4]; Preemergence, 31 g ai/ha): 35
Plant response rating, Crabgrass, Large ([5]; 16 g ai/ha, preemergence): 0
Crabgrass, Large plant response rating ([5]; 62 g ai/ha, Preemergence): 80
Crabgrass, Large plant response rating ([5]; 125 g ai/ha, preemergence): 100
Plant response rating, Crabgrass, Large ([5]; Preemergence, 31 g ai/ha): 20
Plant response rating, Groundsel ([6]; 16 g ai/ha, preemergence): 95
Groundsel plant response rating ([6]; 62 g ai/ha, Preemergence): 95
Groundsel plant response rating ([6]; 125 g ai/ha, preemergence): 100
Plant response rating, Groundsel ([6]; Preemergence, 31 g ai/ha): 95
Surinam Grass plant response rating [7]: 100
Plant response rating, Surinam Grass ([7]; 62 g ai/ha): 100
Plant response rating, Surinam Grass ([7]; 31 g ai/ha): 30
Plant response rating, Purslane ([8]; 16 g ai/ha, preemergence): 30
Purslane plant response rating ([8]; 62 g ai/ha, Preemergence): 60
Purslane plant response rating ([8]; 125 g ai/ha, preemergence): 100
Plant response rating, Purslane ([8]; Preemergence, 31 g ai/ha): 40
Plant response rating, Barnyardgrass [9, 16]: 20
Barnyardgrass plant response rating [9, 17]: 100
Barnyardgrass plant response rating [9, 18]: 100
Plant response rating, Barnyardgrass [9, 19]: 80
Plant response rating, Quackgrass ([10]; 16 g ai/ha, preemergence): 0
Quackgrass plant response rating ([10]; 62 g ai/ha, Preemergence): 80
Quackgrass plant response rating ([10]; 125 g ai/ha, preemergence): 95
Plant response rating, Quackgrass ([10]; Preemergence, 31 g ai/ha): 35
Dayflower plant response rating ([11]; 62 g ai/ha, Preemergence): 50
Dayflower plant response rating ([11]; 125 g ai/ha, preemergence): 100
Plant response rating, Dayflower ([11]; Preemergence, 31 g ai/ha): 20
Plant response rating, Bluegrass ([12]; 16 g ai/ha, preemergence): 0
Bluegrass plant response rating ([12]; 62 g ai/ha, Preemergence): 90
Bluegrass plant response rating ([12]; 125 g ai/ha, preemergence): 100
Plant response rating, Bluegrass ([12]; Preemergence, 31 g ai/ha): 0
Plant response rating, Guineagrass ([13]; 16 g ai/ha, preemergence): 0
Guineagrass plant response rating ([13]; 62 g ai/ha, Preemergence): 100
Guineagrass plant response rating ([13]; 125 g ai/ha, preemergence): 100
Plant response rating, Guineagrass ([13]; Preemergence, 31 g ai/ha): 95
Plant response rating, Kochia ([14]; 16 g ai/ha, preemergence): 50
Kochia plant response rating ([14]; 62 g ai/ha, Preemergence): 100
Kochia plant response rating ([14]; 125 g ai/ha, preemergence): 100
Plant response rating, Kochia ([14]; Preemergence, 31 g ai/ha): 100
Plant response rating, Dallisgrass ([15]; 16 g ai/ha, preemergence): 0
Dallisgrass plant response rating ([15]; 62 g ai/ha, Preemergence): 90
Dallisgrass plant response rating ([15]; 125 g ai/ha, preemergence): 100
Plant response rating, Dallisgrass ([15]; Preemergence, 31 g ai/ha): 40

Cc1cc([S+]([O-])Cc2c(C(F)(F)F)nn(C)c2OCC(F)(F)F)[n+]([O-])cc1Cl (stereo not drawn) [Compound 70]
Ryegrass, Italian plant response rating ([1]; preemergence): 100
Plant response rating, Ryegrass, Italian ([1]; Preemergence, 62 g ai/ha): 100
Plant response rating, Ryegrass, Italian ([1]; Preemergence, 31 g ai/ha): 75
Plant response rating, Black Mustard ([2]; 16 g ai/ha, preemergence): 90
Black Mustard plant response rating ([2]; 62 g ai/ha, Preemergence): 100
Black Mustard plant response rating ([2]; 125 g ai/ha, preemergence): 100
Plant response rating, Black Mustard ([2]; Preemergence, 31 g ai/ha): 90
Plant response rating, Field Bindweed ([3]; 16 g ai/ha, preemergence): 40
Field Bindweed plant response rating ([3]; 62 g ai/ha, Preemergence): 40
Field Bindweed plant response rating ([3]; 125 g ai/ha, preemergence): 40
Plant response rating, Field Bindweed ([3]; Preemergence, 31 g ai/ha): 40
Plant response rating, Sandbur ([4]; 16 g ai/ha, preemergence): 65
Sandbur plant response rating ([4]; preemergence): 100
Plant response rating, Sandbur ([4]; Preemergence, 62 g ai/ha): 75
Plant response rating, Crabgrass, Large ([5]; 16 g ai/ha, preemergence): 35
Crabgrass, Large plant response rating ([5]; 62 g ai/ha, Preemergence): 70
Crabgrass, Large plant response rating ([5]; 125 g ai/ha, preemergence): 98
Plant response rating, Crabgrass, Large ([5]; Preemergence, 31 g ai/ha): 50
Groundsel plant response rating ([6]; 62 g ai/ha, Preemergence): 98
Groundsel plant response rating ([6]; 125 g ai/ha, preemergence): 100
Plant response rating, Groundsel ([6]; Preemergence, 31 g ai/ha): 98
Surinam Grass plant response rating [7]: 100
Plant response rating, Surinam Grass ([7]; 62 g ai/ha): 98
Plant response rating, Surinam Grass ([7]; 31 g ai/ha): 40
Purslane plant response rating ([8]; 62 g ai/ha, Preemergence): 75
Purslane plant response rating ([8]; 125 g ai/ha, preemergence): 75
Plant response rating, Purslane ([8]; Preemergence, 31 g ai/ha): 35
Plant response rating, Barnyardgrass [9, 16]: 60
Barnyardgrass plant response rating [9, 17]: 95
Barnyardgrass plant response rating [9, 18]: 100
Plant response rating, Barnyardgrass [9, 19]: 70
Plant response rating, Quackgrass ([10]; 16 g ai/ha, preemergence): 75
Quackgrass plant response rating ([10]; 62 g ai/ha, Preemergence): 95
Quackgrass plant response rating ([10]; 125 g ai/ha, preemergence): 100
Plant response rating, Quackgrass ([10]; Preemergence, 31 g ai/ha): 75
Plant response rating, Dayflower ([11]; 16 g ai/ha, preemergence): 90
Dayflower plant response rating ([11]; 62 g ai/ha, Preemergence): 100
Dayflower plant response rating ([11]; 125 g ai/ha, preemergence): 100
Plant response rating, Dayflower ([11]; Preemergence, 31 g ai/ha): 100
Plant response rating, Bluegrass ([12]; 16 g ai/ha, preemergence): 65
Bluegrass plant response rating ([12]; 62 g ai/ha, Preemergence): 95
Bluegrass plant response rating ([12]; 125 g ai/ha, preemergence): 100
Plant response rating, Bluegrass ([12]; Preemergence, 31 g ai/ha): 75
Plant response rating, Guineagrass ([13]; 16 g ai/ha, preemergence): 100
Guineagrass plant response rating ([13]; 62 g ai/ha, Preemergence): 100
Guineagrass plant response rating ([13]; 125 g ai/ha, preemergence): 100
Plant response rating, Guineagrass ([13]; Preemergence, 31 g ai/ha): 100
Plant response rating, Kochia ([14]; 16 g ai/ha, preemergence): 95
Kochia plant response rating ([14]; 62 g ai/ha, Preemergence): 100
Kochia plant response rating ([14]; 125 g ai/ha, preemergence): 100
Plant response rating, Kochia ([14]; Preemergence, 31 g ai/ha): 95
Dallisgrass plant response rating ([15]; 62 g ai/ha, Preemergence): 75
Dallisgrass plant response rating ([15]; 125 g ai/ha, preemergence): 98
Plant response rating, Dallisgrass ([15]; Preemergence, 31 g ai/ha): 25
